These results are taken from ChEMBL document CHEMBL1133822, “Studies on 3-deoxy-D-manno-octulosonic acid 8-phosphate synthase using chorismate mutase inhibitors” (Bioorg Med Chem Lett, 2001).

A word on the IC50: it is the midpoint of a concentration-inhibition curve. Low readings indicate inhibition by little substance, high ones a need for much substance. As a reminder, the Ki is a dissociation constant, usually derived from enzyme kinetics or from competition with a known ligand.

SMILES strings stand for the structures. Some results are limits rather than exact numbers.

Test [1] in a line: Inhibitory concentration against KDO 8-P synthase.
Test [2] is described as follows: kinact was determined.
Test [3] in a line: Binding affinity constant against KDO 8-P synthase.
Test [4] in a line: Inhibitory concentration against Chorismate mutase. On the set-up: species or system Bacillus subtilis.

In the case of `O=C(O)C12CCC(C(=O)O)(CC1=O)C(=O)C2`, the IC50 in test [1] was greater than 1000 µM. Still for that read-out and setting: as for `CC1(C(=O)[O-])CCC(C(=O)[O-])C1(C)C.[Na+].[Na+]` (stereo not given), the figure is greater than 1000 µM. `CCCC/N=C(\S)C(O)C(O)C(O)C(O)CO` (stereo not given) gave an IC50 in test [1] of 400 µM. Besides, the K inact in test [2] is 0.01. This compound came in with an inhibitory constant (Ki) in test [3] of 2300 µM. On to `O=C(O)C1C2C=CC(CCC2)C1C(=O)O` (stereo not given), for which the 50% inhibitory concentration (IC50) in test [1] is greater than 1000 µM. As to `O=C(O)CC1(O)CCCCC1`, the IC50 in test [4] was 350 µM; in test [1] it was greater than 1000 µM. Compound `O=C(O)C1=C(C(=O)O)C2C=CC1[C@@H]1C(C(=O)O)[C@H]21` (stereo not given in full) returned a half-maximal inhibitory concentration (IC50) in test [1] greater than 500 µM. Still for that read-out and setting: as for `O=C(O)C1C2C=CC(C3CC23)C1C(=O)O` (stereo not given), the figure is greater than 1000 µM.
